Results taken from patent publication US20250250606A1, “BIOELECTROCHEMICAL DETERMINATION OF LACTATE” (DIRECTSENS GMBH, priority 2022, published 2025).

What was measured:
C[C@H](O)C(=O)O = experiment: purified protein, by the assay type; conditions: other: apparent, L-lactate 0.125 to 64 mM, DCIP 120 μM, 11 mM PBS pH 7.4, 30° C.
[1] = target: T1, Lactobacillus johnsonii lactate dehydrogenase LjLDH, SEQ ID NO: 59, N-terminal 6xHis/HRV 3C tag (SEQ ID NO: 250) (Lactobacillus johnsonii, UniProt A0A7D9N8I3); experiment: Apparent steady-state kinetics of L-lactate oxidation with DCIP as electron acceptor; format: biochemical; conditions: L-lactate 0.125 to 64 mM, DCIP 120 μM, 11 mM PBS pH 7.4, 30° C.
T1 sequence (A0A7D9N8I3 1-412): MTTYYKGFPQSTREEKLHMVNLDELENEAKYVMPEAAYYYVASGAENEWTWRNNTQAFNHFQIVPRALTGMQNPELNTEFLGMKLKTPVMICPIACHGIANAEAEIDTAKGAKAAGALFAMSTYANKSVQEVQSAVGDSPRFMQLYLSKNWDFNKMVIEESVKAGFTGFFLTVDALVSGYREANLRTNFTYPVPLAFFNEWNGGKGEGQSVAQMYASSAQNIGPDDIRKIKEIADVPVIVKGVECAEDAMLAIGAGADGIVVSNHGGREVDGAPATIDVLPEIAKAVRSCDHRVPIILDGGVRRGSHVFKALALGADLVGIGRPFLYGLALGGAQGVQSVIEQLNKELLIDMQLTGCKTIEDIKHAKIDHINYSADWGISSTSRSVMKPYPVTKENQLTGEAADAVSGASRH

[2] = target: T2, Lactobacillus helsingborgensis lactate dehydrogenase LhLDH, SEQ ID NO: 13, N-terminal 6xHis/HRV 3C tag (SEQ ID NO: 250) (Lactobacillus helsingborgensis, UniProt A0A0F4LW09); experiment: as above; format: biochemical; conditions: L-lactate 0.125 to 64 mM, DCIP 120 μM, 11 mM PBS pH 7.4, 30° C.
T2 sequence (A0A0F4LW09 1-409): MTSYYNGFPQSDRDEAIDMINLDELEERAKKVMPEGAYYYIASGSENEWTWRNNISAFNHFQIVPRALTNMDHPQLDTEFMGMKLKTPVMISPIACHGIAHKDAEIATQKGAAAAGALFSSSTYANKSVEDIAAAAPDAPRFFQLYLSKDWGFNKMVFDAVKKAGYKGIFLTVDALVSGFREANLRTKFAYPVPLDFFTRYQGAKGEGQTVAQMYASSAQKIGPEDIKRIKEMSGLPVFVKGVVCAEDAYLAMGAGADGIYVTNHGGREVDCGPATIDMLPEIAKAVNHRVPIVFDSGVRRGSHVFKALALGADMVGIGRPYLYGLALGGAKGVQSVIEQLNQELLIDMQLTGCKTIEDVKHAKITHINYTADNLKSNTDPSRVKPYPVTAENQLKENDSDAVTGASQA

[3] = target: T3, Gilliamella bombicola lactate dehydrogenase GbLDH, SEQ ID NO: 73, N-terminal 6xHis/HRV 3C tag (SEQ ID NO: 250) (Gilliamella bombicola, UniProt A0A1C4CJ33); experiment: as above; format: biochemical; conditions: L-lactate 0.125 to 64 mM, DCIP 120 μM, 11 mM PBS pH 7.4, 30° C.
T3 sequence (A0A1C4CJ33 1-365): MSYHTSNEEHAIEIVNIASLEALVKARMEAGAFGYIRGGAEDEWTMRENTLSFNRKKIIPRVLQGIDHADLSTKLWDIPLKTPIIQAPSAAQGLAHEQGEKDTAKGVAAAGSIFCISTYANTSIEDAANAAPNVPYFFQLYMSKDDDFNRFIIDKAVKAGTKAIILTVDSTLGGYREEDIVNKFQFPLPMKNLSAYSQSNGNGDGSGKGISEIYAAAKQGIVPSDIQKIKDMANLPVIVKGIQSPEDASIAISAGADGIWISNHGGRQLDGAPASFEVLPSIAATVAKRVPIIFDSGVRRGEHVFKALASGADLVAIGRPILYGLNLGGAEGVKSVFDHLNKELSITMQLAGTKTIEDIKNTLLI

[4] = test system: Shigella sp. FC1655 lactate dehydrogenase SsLDH, SEQ ID NO: 74, predicted signal peptide removed, N-terminal 6xHis/HRV 3C tag (SEQ ID NO: 250); conditions: apparent, L-lactate 0.125 to 64 mM, DCIP 120 μM, 11 mM PBS pH 7.4, 30° C.
[5] = target: T4, Pediococcus acidilactici lactate dehydrogenase PaLDH (PaLCTO), native form, SEQ ID NO: 2 (Pediococcus acidilactici, UniProt E0NE46); conditions: apparent; L-lactate 4 to 500 mM; DCIP 120 μM; 11 mM PBS pH 7.4, 30° C.; per monomeric mass
T4 sequence (E0NE46 1-369): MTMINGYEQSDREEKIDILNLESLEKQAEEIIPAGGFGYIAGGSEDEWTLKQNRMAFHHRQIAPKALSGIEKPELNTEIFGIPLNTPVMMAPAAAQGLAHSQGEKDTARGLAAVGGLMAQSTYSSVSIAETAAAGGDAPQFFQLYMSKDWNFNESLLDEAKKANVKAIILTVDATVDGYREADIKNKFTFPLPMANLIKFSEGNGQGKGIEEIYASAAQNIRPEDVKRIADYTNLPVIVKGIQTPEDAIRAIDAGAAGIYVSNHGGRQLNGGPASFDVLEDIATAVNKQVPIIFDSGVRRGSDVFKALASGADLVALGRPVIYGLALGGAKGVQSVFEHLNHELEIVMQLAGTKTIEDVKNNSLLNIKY

For “Enterococcus avium lactate dehydrogenase EaLDH, SEQ ID NO: 155, N-terminal 6xHis/HRV 3C tag (SEQ ID NO: 250) (Enterococcus avium ATCC 14025)”, which Km (C[C@H](O)C(=O)O) is on record?
The Km was 21.6 ± 2.2 mM.

What about the kcat (C[C@H](O)C(=O)O) of the same molecule?
Its kcat is 94 ± 7.8 s⁻¹.

What about the kcat/Km (C[C@H](O)C(=O)O) of the same molecule?
Its kcat/Km is 4350 M⁻¹ s⁻¹.

What does the source list for `C[C@H](O)C(=O)O` [L-lactate]?
Km [1]: 1.35 ± 0.18 mM; kcat ([1]; per monomeric mass): 47.2 ± 2.0 s⁻¹; Km [2]: 0.52 ± 0.09 mM; kcat ([2]; per monomeric mass): 102 ± 8 s⁻¹; Km [3]: 16.9 ± 2.5 mM; kcat ([3]; per monomeric mass): 207 ± 29 s⁻¹; Km [4]: 5.67 ± 1.24 mM; kcat ([4]; per monomeric mass): 107 ± 10 s⁻¹; kcat [5]: 61.8 ± 8.5 s⁻¹
